Laboratory results published in patent US20100234390A1, “NOVEL COMPOUND AND THEIR USE” (priority 2007, published 2010).

Legend:
Assay in all cases: Agar dilution MIC
Conditions in all cases: 35° C., 16-20 hours
[1] = system: S. aureus ATCC 29213; format: cell-based, Staphylococcus aureus
Protocol: (§1) Briefly, the compounds of invention were weighed, dissolved in dimethyl sulfoxide, serially two fold diluted in the same solvent and then incorporated into molten Mueller Hinton Agar (MHA) in a petridish just before solidification, with each petridish containing a different concentration of a compound.
(§2) The bacterial inoculum was prepared by picking 3 to 5 well isolated bacterial colonies with the same morphological appearance from an 18-24 hours old culture with an inoculating loop, transferring the growth to a tube containing 3 mL of normal saline and adjusting the turbidity of the saline suspension to 0.5 Mc Farland Turbidity Standard equivalent to a bacterial population of 1.5×10^8 colony forming units (CFU) per mL of suspension. The suspension was diluted 1:10 in saline (i.e. 0.5 mL suspension 4.5 mL saline) to get a bacterial population of 1.5×10^7 CFU/mL as inoculum.
(§3) The inoculated petridishes were incubated at 35° C. in an ambient atmosphere for 16-20 hours.

[2] = system: S. aureus ATCC 43300; format: cell-based, Staphylococcus aureus
Protocol: as §1, §2, §3

[3] = system: S. aureus MRO 00013; format: cell-based, Staphylococcus aureus
Protocol: as §1, §2, §3

[4] = system: S. aureus MRO 0001; format: cell-based, Staphylococcus aureus
Protocol: as §1, §2, §3

[5] = system: S. aureus MRO 00030; format: cell-based, Staphylococcus aureus
Protocol: as §1, §2, §3

[6] = system: S. aureus MRO 0003; format: cell-based, Staphylococcus aureus
Protocol: as §1, §2, §3

[7] = system: S. aureus MRO 00048; format: cell-based, Staphylococcus aureus
Protocol: as §1, §2, §3

[8] = system: S. aureus MRO 00055; format: cell-based, Staphylococcus aureus
Protocol: as §1, §2, §3

[9] = system: S. aureus MRO 00059; format: cell-based, Staphylococcus aureus
Protocol: as §1, §2, §3

[10] = system: S. aureus MRO 002053; format: cell-based, Staphylococcus aureus
Protocol: as §1, §2, §3

[11] = system: S. epidermidis MRO 002046; format: cell-based
Protocol: as §1, §2, §3

[12] = system: S. epidermidis MRO 02002; format: cell-based
Protocol: as §1, §2, §3

[13] = system: S. epidermidis MRO 02045; format: cell-based
Protocol: as §1, §2, §3

[14] = system: S. epidermidis MRO 02095; format: cell-based
Protocol: as §1, §2, §3

[15] = system: S. haemolyticus MRO 02064; format: cell-based
Protocol: as §1, §2, §3

[16] = system: S. saprophyticus MRO 02003; format: cell-based
Protocol: as §1, §2, §3

[17] = system: E. faecalis ATCC 29212; format: cell-based, Enterococcus faecalis
Protocol: as §1, §2, §3

[18] = system: E. faecalis ATCC 51299; format: cell-based, Enterococcus faecalis
Protocol: as §1, §2, §3

[19] = system: E. faecalis MRO 04035; format: cell-based, Enterococcus faecalis
Protocol: as §1, §2, §3

[20] = system: E. faecalis MRO 04050; format: cell-based, Enterococcus faecalis
Protocol: as §1, §2, §3

[21] = system: E. faecalis MRO 04205; format: cell-based, Enterococcus faecalis
Protocol: as §1, §2, §3

[22] = system: E. faecium ATCC 700221; format: cell-based, Enterococcus faecium
Protocol: as §1, §2, §3

[23] = system: E. faecium MRO 04037; format: cell-based, Enterococcus faecium
Protocol: as §1, §2, §3

[24] = system: E. faecium MRO 04038; format: cell-based, Enterococcus faecium
Protocol: as §1, §2, §3

[25] = system: E. faecium MRO 04198; format: cell-based, Enterococcus faecium
Protocol: as §1, §2, §3

[26] = system: M. catarrhalis ATCC 43617; format: cell-based, Moraxella catarrhalis
Protocol: as §1, §2, §3

[27] = system: M. catarrhalis ATCC 43627; format: cell-based, Moraxella catarrhalis
Protocol: as §1, §2, §3

[28] = system: M. catarrhalis ATCC 43628; format: cell-based, Moraxella catarrhalis
Protocol: as §1, §2, §3

SMILES | Antimicrobial Screening (MIC) [1] | Antimicrobial Screening (MIC) [2] | Antimicrobial Screening (MIC) [3] | Antimicrobial Screening (MIC) [4] | Antimicrobial Screening (MIC) [5] | Antimicrobial Screening (MIC) [6] | Antimicrobial Screening (MIC) [7] | Antimicrobial Screening (MIC) [8] | Antimicrobial Screening (MIC) [9] | Antimicrobial Screening (MIC) [10] | Antimicrobial Screening (MIC) [11] | Antimicrobial Screening (MIC) [12] | Antimicrobial Screening (MIC) [13] | Antimicrobial Screening (MIC) [14] | Antimicrobial Screening (MIC) [15] | Antimicrobial Screening (MIC) [16] | Antimicrobial Screening (MIC) [17] | Antimicrobial Screening (MIC) [18] | Antimicrobial Screening (MIC) [19] | Antimicrobial Screening (MIC) [20] | other results
COC(=S)NC[C@H]1CN(c2ccc(N3CCN(C(=O)CNS(C)(=O)=O)CC3)c(F)c2)C(=O)O1 [Example 43] | 0.5 µg/mL | 0.5 µg/mL | 0.5 µg/mL | 0.25 µg/mL | 0.5 µg/mL | 0.5 µg/mL | 0.5 µg/mL | 0.5 µg/mL | 0.5 µg/mL | 0.5 µg/mL | 0.25 µg/mL | 0.5 µg/mL | 0.5 µg/mL | 0.5 µg/mL | 0.5 µg/mL | 0.5 µg/mL | 0.25 µg/mL | 0.25 µg/mL | 0.25 µg/mL | 0.25 µg/mL | Antimicrobial Screening (MIC) [21]: 0.25 µg/mL; Antimicrobial Screening (MIC) [22]: 0.25 µg/mL; Antimicrobial Screening (MIC) [23]: 0.25 µg/mL; Antimicrobial Screening (MIC) [24]: 0.25 µg/mL; Antimicrobial Screening (MIC) [25]: 0.5 µg/mL; Antimicrobial Screening (MIC) [26]: 1 µg/mL; Antimicrobial Screening (MIC) [27]: 2 µg/mL; Antimicrobial Screening (MIC) [28]: 2 µg/mL
COC(=S)NC[C@H]1CN(c2ccc(N3CCN(C(=O)c4ccno4)CC3)c(F)c2)C(=O)O1 [Example 44, (S)—O-M ethyl(3-(3-fluoro-4-(4-(isoxazole-5-carbonyl)piperazin-1-yl)phenyl)-2-oxooxazolidin-5-yl)methylcarbamothioate] | 0.5 µg/mL | 0.5 µg/mL | 0.5 µg/mL | 0.5 µg/mL | 0.5 µg/mL | 0.5 µg/mL | 0.25 µg/mL | 0.5 µg/mL | 0.5 µg/mL | 0.5 µg/mL | 0.25 µg/mL | 0.5 µg/mL | 0.5 µg/mL | 0.25 µg/mL | 0.25 µg/mL | 0.5 µg/mL | 0.25 µg/mL | 0.25 µg/mL | 0.25 µg/mL | 0.5 µg/mL | Antimicrobial Screening (MIC) [21]: 0.25 µg/mL; Antimicrobial Screening (MIC) [22]: 0.25 µg/mL; Antimicrobial Screening (MIC) [23]: 0.25 µg/mL; Antimicrobial Screening (MIC) [24]: 0.25 µg/mL; Antimicrobial Screening (MIC) [25]: 0.25 µg/mL; Antimicrobial Screening (MIC) [26]: 1 µg/mL; Antimicrobial Screening (MIC) [27]: 2 µg/mL; Antimicrobial Screening (MIC) [28]: 1 µg/mL
